Data taken from the OligoGym collection.
Bases are written 5' to 3'; sugars and linkages follow in the same order, as letters with counts (s phosphorothioate, o phosphodiester; PS: all linkages phosphorothioate). C may stand for cytosine or 5-methylcytosine; the collection does not tell. l = locked nucleic acid (LNA); d = 2'-deoxy (DNA)

Biological target: HIF1A
Assay: HeLa, 100 nM transfected, 24 h, mean of 3
Settings: ASO

Row | Sequence | caspase activation (% of PBS control)
1 | TGGCAAGCATCCTGTA (sugars llldlddddddlldll, PS) | 458
2 | TGGCAAGCATCCTGTA (sugars llldlddddddllldl, PS) | 413
3 | TGGCAAGCATCCTGTA (sugars lllldddddddldldl, PS) | 372
4 | TGGCAAGCATCCTGTA (sugars lllllddddddldldl, PS) | 373
5 | TTACTGCCTTCTT (sugars l1 d1 l1 d7 l3, PS) | 183
6 | TTACTGCCTTCTT (sugars l1 d1 l1 d8 l2, PS) | 146
7 | TTACTGCCTTCTT (sugars l1 d1 l1 d9 l1, PS) | 117
8 | TTACTGCCTTCTT (sugars l1 d1 l2 d6 l3, PS) | 237
9 | TTACTGCCTTCTT (sugars l1 d1 l2 d7 l2, PS) | 165
10 | TTACTGCCTTCTT (sugars l1 d1 l2 d8 l1, PS) | 153
11 | TTACTGCCTTCTT (sugars l1 d2 l1 d6 l3, PS) | 131
12 | TTACTGCCTTCTT (sugars l1 d2 l1 d7 l2, PS) | 126
13 | TTACTGCCTTCTT (sugars l1 d2 l1 d8 l1, PS) | 105
14 | TTACTGCCTTCTT (sugars l1 d9 l1 d1 l1, PS) | 127
15 | TTACTGCCTTCTT (sugars l1 d9 l3, PS) | 131
16 | TTACTGCCTTCTT (sugars l1 d10 l2, PS) | 102
17 | TTACTGCCTTCTT (sugars l1 d11 l1, PS) | 82.9
18 | TTACTGCCTTCTT (sugars l2 d1 l1 d6 l3, PS) | 325

Row | Sequence | caspase activation (% of PBS control)
19 | TTACTGCCTTCTT (sugars l2 d1 l1 d7 l2, PS) | 202
20 | TTACTGCCTTCTT (sugars l2 d1 l1 d8 l1, PS) | 147
21 | TTACTGCCTTCTT (sugars l2 d8 l1 d1 l1, PS) | 198
22 | TTACTGCCTTCTT (sugars l2 d8 l3, PS) | 270
23 | TTACTGCCTTCTT (sugars l2 d9 l2, PS) | 148
24 | TTACTGCCTTCTT (sugars l2 d10 l1, PS) | 158
25 | TTACTGCCTTCTT (sugars l3 d7 l1 d1 l1, PS) | 205
26 | TTACTGCCTTCTT (sugars l3 d7 l3, PS) | 291
27 | TTACTGCCTTCTT (sugars l3 d8 l2, PS) | 226
28 | TTACTGCCTTCTT (sugars l3 d9 l1, PS) | 128
29 | TTACTGCCTTCTT (sugars l4 d6 l1 d1 l1, PS) | 308
30 | TTACTGCCTTCTT (sugars l4 d6 l3, PS) | 396
31 | TTACTGCCTTCTT (sugars l4 d7 l2, PS) | 337
32 | TTACTGCCTTCTT (sugars l4 d8 l1, PS) | 202
33 | TTACTGCCTTCTT (sugars lddlddddddldl, PS) | 127
34 | TTACTGCCTTCTT (sugars ldldddddddldl, PS) | 154
35 | TTACTGCCTTCTT (sugars ldllddddddldl, PS) | 181
36 | TTACTGCCTTCTT (sugars lldlddddddldl, PS) | 222
